In patent publication US8623832B2, “Peptide compositions that bind TLR-4” (The Board of Regents of the University of Oklahoma, priority 2011, dated 2014):
Where no end group is shown, it is not given here.

What was measured:
[1] = tested on: JAWS II dendritic cells; assay: LPS-induced TNF-α release by JAWS II dendritic cells (ELISA); assay type: cell-based, mouse; conditions: for LPS-induced TNF-α, mean values: post-LPS model
Protocol: JAWS II dendritic cell culture: The JAWS II dendritic cell line is an immortalized cell line derived from bone marrow of C57BL/6 mice (ATCC, Manassas, Va.). The cells were maintained in Alpha-modified minimum essential medium (Sigma, St Louis, Mo.) supplemented with 20% fetal bovine serum (FBS), 4 mM L-glutamine, 100 U/ml penicillin, 100 μg/ml streptomycin, 50 μg/ml gentamicin (Invitrogen, Grand Island, N.Y.) and 5 ng/ml of recombinant murine granulocyte macrophage-colony stimulating factor (Peprotech, Rocky Hill, N.J.). (Awasthi et al., 2005). The culture medium was replaced with fresh medium every 48 h.
The JAWS II dendritic cells (1 million) were treated with SP-A peptides (1 or 10 μM) with or without E. coli derived LPS (75 ng/ml, highly purified, low protein, Calbiochem, CA). In order to observe the anti-inflammatory properties of the SP-A peptides, the cells were treated with peptides for 1 hour prior to addition of LPS (pre-LPS treatment) or after 4 hours incubation with LPS (Post-LPS treatment). The incubation was continued for a total period of 5 hours. Control cells were treated with vehicle, LPS (75 ng/ml), and/or SP-A peptides (1 and 10 μM) for a period of 5 hours. The cell-free supernatants were collected and stored at −80° C. for further analysis.
Cytokine (TNF-α) measurement: The TNF-α levels were measured in cell-free supernatants of JAWS II dendritic cells treated with LPS with or without SP-A peptides by enzyme linked immunosorbent assay (ELISA) as described earlier (Awasthi and Cox, 2003).

[2] = tested on: NF-κB; assay: NF-κB luciferase reporter activity in LPS-challenged JAWS II dendritic cells; assay type: cell-based, mouse
Protocol: At the molecular level, the effects of SPA4 peptide on LPS-induced NF-κB activity were studied in dendritic cells (JAWS II cells) co-transfected with NFκB luciferase reporter plasmid construct and dominant negative construct of MYD88 (an adaptor protein downstream of TLR4; MYD88DN). Briefly, JAWS II dendritic cells (0.5×10^6) were transfected with NF-κB luciferase reporter and/or MYD88DN using TransIT-TKO transfection reagent as described earlier (Awasthi S et al., 2003). After 20-24 hours of incubation, the transfected cells were challenged with LPS (100 ng/ml) for 4 hours and treated with SPA4 peptide (10 μM) for 1 hour. After the completion of 5 hours incubation, the cell lysates were prepared in cell lysis buffer and NF-κB-luciferase reporter activity was measured as per the manufacturer's instructions (Promega, WI).

[3] = tested on: dendritic (JAWS II) and intestinal epithelial cells (SW480); assay: Cell viability during the 5 hour TLR4 expression experiment; assay type: cell-based; conditions: within the 5 hours of the experiment
Protocol: SPA4 peptide (SEQ ID NO:3) inhibits the LPS-induced TLR4 expression in dendritic cells and SW480 intestinal (colonic) epithelial cells. […] Both of these cells constitutively express the TLR4 gene; the protein expression is low in dendritic cells under basal conditions. […] First, it was determined if the SPA4 peptide inhibits LPS-induced expression of TLR4 in these cells. […] After a total of 5 hours, TLR4 expression was studied by confocal microscopy.

[4] = target: T1, recombinant MD2 protein (Homo sapiens, UniProt Q9Y6Y9); assay: Microwell-based binding to immobilized recombinant MD2 protein; conditions: 0.25 μg MD2 per well
T1 construct: human MD-2 (mature region, Glu 17-Asn 160 amino acids); 10x histidine tag (C); signal peptide from human CD33 (N); purchased R&D Systems, MN; host or cells: mouse myeloma cell line NS0
T1 sequence (Q9Y6Y9 17-160): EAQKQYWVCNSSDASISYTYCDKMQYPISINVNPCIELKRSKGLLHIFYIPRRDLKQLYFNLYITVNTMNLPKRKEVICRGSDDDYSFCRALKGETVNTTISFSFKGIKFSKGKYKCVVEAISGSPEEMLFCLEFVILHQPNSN
Description: Interaction between purified baboon lung SP-A, SP-A-peptides and TLR4-MD2 proteins using a microwell-based method: The binding between the purified baboon lung SP-A, SP-A-peptides and recombinant TLR4-MD2 and MD2 proteins was studied in vitro using a microwell-based method (Awasthi et al., 2004). The soluble, recombinant TLR4-MD2 protein (R&D Systems, MN) consisted of a mixture of recombinant human-TLR4 and MD2 proteins. The recombinant extracellular domain of human TLR4 protein (Glu 24-Lys 631 amino acids), was joined with a DNA sequence encoding the signal peptide from human CD33 and a 10× histidine tag at the C-terminus (Accession # O00206). For MD2 protein, a DNA sequence encoding the signal peptide from human CD33 was joined with the mature region of human MD-2 (mature region, Glu 17-Asn 160 amino acids) and a 10× histidine tag at the C-terminus (Accession # Q9Y6Y9). […]
For the binding assay, microwell ultra-high-protein binding Immunolon 4HBX strips (Thermo Scientific, MA) were coated with soluble recombinant-TLR4-MD2 protein or MD2 protein (R&D Systems, 250 ng per well, diluted in 0.1 M NaHCO3, pH 9.6) overnight at room temperature. […] The immune-complex was detected using 3,3′,5,5′-tetramethylbenzidine (TMB) substrate system (Sigma-Aldrich, MO). The reaction was stopped with 2 N H2SO4 and read at 405 and/or 450 nm spectrophotometrically (Molecular Devices, CA).

## GDFRYSDGTPVNYTNWYRGE [SPA4, GDFRYSDGT PVNYTNWYRGE]
[1]; peptide added after 4 hours LPS 75 ng/ml, both 1 and 10 μM
  secretion of TNF-α, post-LPS model: inhibited the secretion of TNF-α
[1]; 1 μM peptide
  LPS-induced TNF-α, mean values: 6448 pg/mL
[1]; 10 μM peptide
  LPS-induced TNF-α, mean values: 6101 pg/mL
[2]; JAWS II co-transfected with MYD88 dominant negative
  MYD88-independent NF-κB activity: does not affect
[2]; JAWS II, LPS 100 ng/ml 4 hours, SPA4 10 μM 1 hour
  LPS-induced NF-κB activity in dendritic cells: inhibits
[3]
  viability of cells: does not affect the viability of cells

## SP-A: native surfactant protein-A purified from bronchioalveolar lavage fluid of a normal healthy adult baboon (MWLCPLALTLTLMAASGAACEVKDVCVGSPGIPGTPGSHGLPGRDGRDGVKGDPGPP; listed as Papio cynocephalus)
[4]
  binding to surface-bound MD2 protein: found to bind
